Results as given in ChEMBL document CHEMBL5154662, “Discovery of BP3 as an efficacious proteolysis targeting chimera (PROTAC) degrader of HSP90 for treating breast cancer” (Eur J Med Chem, 2022).
Blank lines part the entries; values can stand above or below the compound they belong to. Active and inactive are the calls of the source. The calls are words filed in the database; no cut-off is given here.

What was measured:
MCF7 [1] = experiment: Antiproliferative activity against human MCF-7 cells assessed as inhibition of cell proliferation incubated for 72 hrs by MTT assay; format: functional, cell-based; settings: MCF7, 72 h
MDA-MB-231 = experiment: Antiproliferative activity against human MDA-MB-231 cells assessed as inhibition of cell proliferation incubated for 72 hrs by MTT assay; format: functional, cell-based; settings: MDA-MB-231, 72 h
[2] = target: T1, Protein cereblon/Heat shock protein HSP 90-alpha/Heat shock protein HSP 90-beta (Homo sapiens, UniProt P07900+P08238+Q96SW2); experiment: Protac activity at CRBN/HSP90 in human MCF7 cells assessed as maximum degradation of HSP90 measured after 6 hrs by western blot analysis relative to control; format: cell-based
T1 sequence (P08238 whole entry, other chains not shown): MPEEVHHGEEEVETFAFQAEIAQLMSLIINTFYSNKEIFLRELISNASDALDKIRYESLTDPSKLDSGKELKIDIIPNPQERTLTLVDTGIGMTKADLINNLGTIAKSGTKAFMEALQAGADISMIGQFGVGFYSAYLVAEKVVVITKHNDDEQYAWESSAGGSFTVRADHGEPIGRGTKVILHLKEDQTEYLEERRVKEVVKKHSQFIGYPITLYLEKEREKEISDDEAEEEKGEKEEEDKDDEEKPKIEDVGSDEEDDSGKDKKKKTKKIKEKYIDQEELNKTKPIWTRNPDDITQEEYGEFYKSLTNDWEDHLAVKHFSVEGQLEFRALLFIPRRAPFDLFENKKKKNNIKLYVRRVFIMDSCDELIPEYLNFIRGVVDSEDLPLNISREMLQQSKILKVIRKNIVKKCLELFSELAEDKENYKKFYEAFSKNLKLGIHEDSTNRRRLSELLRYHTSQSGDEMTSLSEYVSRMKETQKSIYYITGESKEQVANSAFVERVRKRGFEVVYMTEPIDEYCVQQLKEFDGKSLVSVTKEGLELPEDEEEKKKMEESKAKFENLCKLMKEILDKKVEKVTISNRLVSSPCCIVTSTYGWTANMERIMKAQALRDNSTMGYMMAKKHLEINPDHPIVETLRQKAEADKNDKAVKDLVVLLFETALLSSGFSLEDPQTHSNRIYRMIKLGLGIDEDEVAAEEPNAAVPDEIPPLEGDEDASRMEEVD
T1 sequence (Q96SW2 whole entry, other chains not shown): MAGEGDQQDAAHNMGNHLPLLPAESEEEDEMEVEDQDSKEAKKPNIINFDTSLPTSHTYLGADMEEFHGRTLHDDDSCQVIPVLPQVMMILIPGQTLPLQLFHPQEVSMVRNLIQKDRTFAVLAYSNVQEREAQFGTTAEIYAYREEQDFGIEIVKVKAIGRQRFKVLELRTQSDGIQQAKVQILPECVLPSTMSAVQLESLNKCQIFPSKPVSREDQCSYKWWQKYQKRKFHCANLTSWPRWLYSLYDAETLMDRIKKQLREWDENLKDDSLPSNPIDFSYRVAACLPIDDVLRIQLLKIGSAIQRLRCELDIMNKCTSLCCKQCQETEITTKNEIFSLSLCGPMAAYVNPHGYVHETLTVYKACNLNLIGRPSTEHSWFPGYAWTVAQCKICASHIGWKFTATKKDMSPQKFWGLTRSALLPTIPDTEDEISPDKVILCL

[3] = target: T1, Protein cereblon/Heat shock protein HSP 90-alpha/Heat shock protein HSP 90-beta; experiment: Protac activity at CRBN/HSP90 in human MCF7 cells assessed as reduction in HSP90 protein expression level at 2 uM measured after 6 hrs by western blot analysis; format: cell-based
Heat shock protein HSP90 = Heat shock protein HSP90 (Homo sapiens, UniProt P07900+P08238); experiment: Binding affinity to HSP90 (unknown origin) upto 250 uM by BLI assay; format: protein assay
MCF7 [4] = experiment: Anticancer activity against human MCF7 cells assessed as inhibition of colony formation at 2 to 10 uM measured after 48 hrs by crystal violet staining based assay; format: functional, cell-based; settings: dose 2-10 µM, DDE = dose-dependent effect
4T1 [5] = experiment: Anticancer activity against mouse 4T1 cells assessed as inhibition of cell proliferation measured after 72 hrs by MTT assay; format: functional, cell-based; settings: 4T1, 72 h
MDA-MB-468 = experiment: Anticancer activity against human MDA-MB-468 cells assessed as inhibition of cell proliferation measured after 72 hrs by MTT assay; format: functional, cell-based; settings: MDA-MB-468, 72 h
[6] = Tmax in rat at 15 mg/kg, ip measured after 8 hrs; format: ADME, organism-based; settings: in vivo
[7] = Cmax in rat at 15 mg/kg, ip measured after 8 hrs; format: ADME, organism-based; parameters: time 8 hrs, dose 15 mg/kg, route ip; settings: in vivo
[8] = AUC in rat at 15 mg/kg, ip measured after 8 hrs; format: ADME, organism-based; parameters: dose 15 mg/kg, time 8 hrs, route ip; settings: in vivo
[9] = AUCinfinity in rat at 15 mg/kg, ip measured after 8 hrs; format: ADME, organism-based; parameters: dose 15 mg/kg, time 8 hrs, route ip; settings: in vivo
[10] = Half life in rat at 15 mg/kg, ip measured after 8 hrs; format: ADME, organism-based; settings: in vivo
4T1 [11] = experiment: Antitumor activity against female BALB/c mouse xenografted with 4T1 cells assessed as tumor growth inhibition at 40 mg/kg, ip administered daily for 12 days relative to control; format: functional; settings: 4T1, 288 h, time 12 day, read-out: TGI
[12] = Toxicity in BALB/c mouse assessed as body weight loss at 40 mg/kg, ip administered daily for 12 days measured once every 3 days; format: organism-based; settings: in vivo, 288 h, time 12 day
[13] = target: T1, Protein cereblon/Heat shock protein HSP 90-alpha/Heat shock protein HSP 90-beta; experiment: Protac activity at CRBN/HSP90 in human MCF7 cells assessed as reduction in HSP90 mRNA expression level at 2 uM followed by cycloheximide addition measured upto 12 hrs by qRT-PCR analysis; format: cell-based
[14] = target: T1, Protein cereblon/Heat shock protein HSP 90-alpha/Heat shock protein HSP 90-beta; experiment: Protac activity at CRBN/HSP90 in human MCF7 cells assessed as HSP90 degradation measured after 6 hrs by western blot analysis; format: cell-based
[15] = target: T1, Protein cereblon/Heat shock protein HSP 90-alpha/Heat shock protein HSP 90-beta; experiment: Protac activity at CRBN/HSP90 in human MCF7 cells assessed as reduction in AKT protein expression level at 2 uM measured after 6 hrs by western blot analysis; format: cell-based
[16] = target: T1, Protein cereblon/Heat shock protein HSP 90-alpha/Heat shock protein HSP 90-beta; experiment: Protac activity at CRBN/HSP90 in human MCF7 cells assessed as reduction in p53 protein expression level at 2 uM measured after 6 hrs by western blot analysis; format: cell-based
[17] = target: Heat shock protein HSP 90-alpha (Homo sapiens) (UniProt P07900); experiment: Degradation of HSP90alpha in human MCF7 cells at 2 uM measured after 6 hrs by western blot analysis; format: cell-based
[18] = Toxicity in BALB/c mouse assessed as death at 40 mg/kg, ip administered daily for 12 days; format: organism-based; settings: in vivo, 288 h, time 12 day
4T1 [19] = experiment: Antitumor activity against female BALB/c mouse xenografted with 4T1 cells assessed as reduction on tumor weight at 40 mg/kg, ip administered daily for 12 days; format: functional, organism-based; settings: time 12.0 day
4T1 [20] = experiment: Antitumor activity against female BALB/c mouse xenografted with 4T1 cells assessed as reduction on tumor formation at 40 mg/kg, ip administered daily for 12 days; format: functional, organism-based; settings: time 12.0 day
[21] = target: T1, Protein cereblon/Heat shock protein HSP 90-alpha/Heat shock protein HSP 90-beta; experiment: Protac activity at CRBN/HSP90 in human MCF7 cells assessed as reduction in HSP90 protein expression level at 2 uM followed by cycloheximide addition measured upto 12 hrs by western blot analysis; format: cell-based
4T1 [22] = experiment: Antitumor activity against female BALB/c mouse xenografted with 4T1 cells assessed as tumor growth inhibition at 60 mg/kg, ip administered daily for 12 days relative to control; format: functional; settings: 4T1, 288 h, time 12 day, read-out: TGI

IC50 (MCF7 [1]): 1.45 µM
IC50 (MDA-MB-231): 5.2 µM
Structure (SMILES): COc1c(C)cnc(Cn2cc(C#CCCCNc3cccc4c3C(=O)N(C3CCC(=O)NC3=O)C4=O)c3c(Cl)nc(N)nc32)c1C (configuration not stated)

IC50 (MCF7 [1]): 0.98 µM
IC50 (MDA-MB-231): 0.76 µM
Structure (SMILES): COc1c(C)cnc(Cn2cc(C#CCOCCOCCNc3cccc4c3C(=O)N(C3CCC(=O)NC3=O)C4=O)c3c(Cl)nc(N)nc32)c1C (configuration not stated)

IC50 (MCF7 [1]): 0.19 µM
IC50 (MDA-MB-231): 0.44 µM
Structure (SMILES): COc1c(C)cnc(Cn2cc(C#CCOCCNc3cccc4c3C(=O)N(C3CCC(=O)NC3=O)C4=O)c3c(Cl)nc(N)nc32)c1C (configuration not stated)

IC50 (MCF7 [1]): 0.25 µM
IC50 (MDA-MB-231): 2.2 µM
Structure (SMILES): COc1c(C)cnc(Cn2cc(C#CCCCCNc3cccc4c3C(=O)N(C3CCC(=O)NC3=O)C4=O)c3c(Cl)nc(N)nc32)c1C (configuration not stated)

IC50 (MCF7 [1]): 1.98 µM
IC50 (MDA-MB-231): 20.6 µM
Structure (SMILES): COc1c(C)cnc(Cn2cc(C#CCNc3cccc4c3C(=O)N(C3CCC(=O)NC3=O)C4=O)c3c(Cl)nc(N)nc32)c1C (configuration not stated)

IC50 (MCF7 [1]): 2.24 µM
IC50 (MDA-MB-231): 4.85 µM
Structure (SMILES): COc1c(C)cnc(Cn2cc(C#CCOCCOCCOCCNc3cccc4c3C(=O)N(C3CCC(=O)NC3=O)C4=O)c3c(Cl)nc(N)nc32)c1C (configuration not stated)

IC50 (MCF7 [1]): 6.12 µM
IC50 (MDA-MB-231): 9.48 µM
Structure (SMILES): COc1c(C)cnc(Cn2cc(C#CCOCCOCCOCCOCCNc3cccc4c3C(=O)N(C3CCC(=O)NC3=O)C4=O)c3c(Cl)nc(N)nc32)c1C (configuration not stated)

IC50 (MCF7 [1]): 2.46 µM
IC50 (MDA-MB-231): 7.77 µM
Structure (SMILES): COc1c(C)cnc(Cn2cc(C#CCCNc3cccc4c3C(=O)N(C3CCC(=O)N(C)C3=O)C4=O)c3c(Cl)nc(N)nc32)c1C (configuration not stated)

Continued, compound first:

Structure (SMILES): COc1cc(C(=O)NCCOCCOCCOCCOCC#Cc2cn(Cc3ncc(C)c(OC)c3C)c3nc(N)nc(Cl)c23)ccc1NC(=O)[C@@H]1N[C@@H](CC(C)(C)C)[C@](C#N)(c2ccc(Cl)cc2F)[C@H]1c1cccc(Cl)c1F
IC50 (MCF7 [1]): > 100 µM
IC50 (MDA-MB-231): > 100 µM

Structure (SMILES): COc1cc(C(=O)NCCOCC#Cc2cn(Cc3ncc(C)c(OC)c3C)c3nc(N)nc(Cl)c23)ccc1NC(=O)[C@@H]1N[C@@H](CC(C)(C)C)[C@](C#N)(c2ccc(Cl)cc2F)[C@H]1c1cccc(Cl)c1F
IC50 (MCF7 [1]): 71.7 µM
IC50 (MDA-MB-231): 65.9 µM

Structure (SMILES): COc1cc(C(=O)NCCOCCOCC#Cc2cn(Cc3ncc(C)c(OC)c3C)c3nc(N)nc(Cl)c23)ccc1NC(=O)[C@@H]1N[C@@H](CC(C)(C)C)[C@](C#N)(c2ccc(Cl)cc2F)[C@H]1c1cccc(Cl)c1F
IC50 (MCF7 [1]): 32.9 µM
IC50 (MDA-MB-231): 72.1 µM

Structure (SMILES): COc1cc(C(=O)NCCC#Cc2cn(Cc3ncc(C)c(OC)c3C)c3nc(N)nc(Cl)c23)ccc1NC(=O)[C@@H]1N[C@@H](CC(C)(C)C)[C@](C#N)(c2ccc(Cl)cc2F)[C@H]1c1cccc(Cl)c1F
IC50 (MCF7 [1]): 37.9 µM
IC50 (MDA-MB-231): > 100 µM

Structure (SMILES): COc1c(C)cnc(Cn2cc(C#CCCNc3cccc4c3C(=O)N(C3CCC(=O)NC3=O)C4=O)c3c(Cl)nc(N)nc32)c1C (configuration not stated)
IC50 (MCF7 [1]): 0.63 µM
IC50 (MDA-MB-231): 3.53 µM
Emax [2]: 83.4%
Activity [3]: Active
Kd (Heat shock protein HSP90): 1.18 10^-4M
Activity (MCF7 [4]): Dde
IC50 (4T1 [5]): 610 nM
IC50 (MDA-MB-468): 2950 nM
Tmax [6]: 1.85 h
Cmax [7]: 260 ng/mL
AUC [8]: 1.36 µg·h/mL
AUC [9]: 2.08 µg·h/mL
half-life [10]: 270 min
inhibition in vivo at 40 mg/kg (4T1 [11]): 76.4%
Activity [12]: 19.7%
Activity [13]: Active
DC50 [14]: 990 nM
Activity [15]: Active
Activity [16]: Active
Activity [17]: Active
Activity [18]: Non-Toxic
Activity (4T1 [19]): Active
Activity (4T1 [20]): Active
Activity [21]: Active

Structure (SMILES): COc1cc(C(=O)NCC#Cc2cn(Cc3ncc(C)c(OC)c3C)c3nc(N)nc(Cl)c23)ccc1NC(=O)[C@@H]1N[C@@H](CC(C)(C)C)[C@](C#N)(c2ccc(Cl)cc2F)[C@H]1c1cccc(Cl)c1F
IC50 (MCF7 [1]): 20.9 µM
IC50 (MDA-MB-231): > 100 µM

Structure (SMILES): COc1cc(C(=O)NCCOCCOCCOCC#Cc2cn(Cc3ncc(C)c(OC)c3C)c3nc(N)nc(Cl)c23)ccc1NC(=O)[C@@H]1N[C@@H](CC(C)(C)C)[C@](C#N)(c2ccc(Cl)cc2F)[C@H]1c1cccc(Cl)c1F
IC50 (MCF7 [1]): > 100 µM
IC50 (MDA-MB-231): > 100 µM

Structure (SMILES): COc1c(C)cnc(Cn2cc(C#CCOCCOCCOCCOCCOCCOCCNc3cccc4c3C(=O)N(C3CCC(=O)NC3=O)C4=O)c3c(Cl)nc(N)nc32)c1C (configuration not stated)
IC50 (MCF7 [1]): 3.14 µM
IC50 (MDA-MB-231): 3.88 µM

Structure (SMILES): COc1c(C)cnc(Cn2cnc3c(Cl)nc(N)nc32)c1C [BIIB021]
IC50 (MCF7 [1]): 1.12 µM
IC50 (MDA-MB-231): 7.72 µM
Activity (MCF7 [4]): Dde
IC50 (4T1 [5]): 550 nM
IC50 (MDA-MB-468): 2520 nM
inhibition in vivo at 60 mg/kg (4T1 [22]): 31.8%

Structure (SMILES): COc1cc(C(=O)NCCCC#Cc2cn(Cc3ncc(C)c(OC)c3C)c3nc(N)nc(Cl)c23)ccc1NC(=O)[C@@H]1N[C@@H](CC(C)(C)C)[C@](C#N)(c2ccc(Cl)cc2F)[C@H]1c1cccc(Cl)c1F
IC50 (MCF7 [1]): 97.3 µM
IC50 (MDA-MB-231): > 100 µM

Structure (SMILES): COc1cc(C(=O)NCCCCC#Cc2cn(Cc3ncc(C)c(OC)c3C)c3nc(N)nc(Cl)c23)ccc1NC(=O)[C@@H]1N[C@@H](CC(C)(C)C)[C@](C#N)(c2ccc(Cl)cc2F)[C@H]1c1cccc(Cl)c1F
IC50 (MCF7 [1]): > 100 µM
IC50 (MDA-MB-231): > 100 µM

Structure (SMILES): Nc1cccc2c1C(=O)N(C1CCC(=O)NC1=O)C2=O (configuration not stated) [POMALIDOMIDE]
IC50 (MCF7 [1]): > 100 µM
IC50 (MDA-MB-231): > 100 µM

Structure (SMILES): COc1cc(C(=O)NCCOCCOCCOCCOCCOCC#Cc2cn(Cc3ncc(C)c(OC)c3C)c3nc(N)nc(Cl)c23)ccc1NC(=O)[C@@H]1N[C@@H](CC(C)(C)C)[C@](C#N)(c2ccc(Cl)cc2F)[C@H]1c1cccc(Cl)c1F
IC50 (MCF7 [1]): > 100 µM
IC50 (MDA-MB-231): > 100 µM

Structure (SMILES): COc1cc(C(=O)NCCOCCOCCOCCOCCOCCOCC#Cc2cn(Cc3ncc(C)c(OC)c3C)c3nc(N)nc(Cl)c23)ccc1NC(=O)[C@@H]1N[C@@H](CC(C)(C)C)[C@](C#N)(c2ccc(Cl)cc2F)[C@H]1c1cccc(Cl)c1F
IC50 (MCF7 [1]): > 100 µM
IC50 (MDA-MB-231): > 100 µM

Structure (SMILES): COc1c(C)cnc(Cn2cc(C#CCOCCOCCOCCOCCOCCNc3cccc4c3C(=O)N(C3CCC(=O)NC3=O)C4=O)c3c(Cl)nc(N)nc32)c1C (configuration not stated)
IC50 (MCF7 [1]): 5.63 µM
IC50 (MDA-MB-231): 3.87 µM
